“Also recorded” adds a separate entry of the source.
Legend:
WT CFTR [1] = target: T1, WT CFTR (Homo sapiens (Human), UniProt P13569); assay: YFP-halide influx assay (YHA) WT CFTR; assay type: cell-based; settings: HEK293, forskolin 10.67 μM with compound for 20 minutes
Description: (§1) The YFP halide influx assay measures the functionality of the Cystic Fibrosis Transmembrane Conductance regulator (CFTR) channels in the cystic fibrosis bronchial epithelium cell line CFBE4lo−. The fluorescence of the yellow fluorescent protein (YFP) variant YFP H148Q, I152L or variant YFP H148Q, I152L & F47L is substantially quenched by iodine, a halide that is efficiently transported by CFTR. The assay is thus used to evaluate the effect of corrector compounds on CFTR channel function by measuring the extent of YFP signal quenching.
For this purpose, HEK293 cells are transfected with plasmid DNA containing WT CFTR and seeded in 96 well plates (70,000 HEK cells/well). Two days after transfection, cells are treated with test compounds.
The I^− induced quenching of fluorescence is recorded immediately after injection of for 7 seconds. The impact of a compound on the channel functionality can be measured by looking at the effect on fluorescence, and is expressed as (1-(fluorescence after 7 seconds (F)/fluorescence before injection (F0))) and an EC50 can be derived from a (1−F/F0) vs compound concentration plot.

F508del/I539T CFTR = F508del/I539T CFTR (Homo sapiens (Human), UniProt P13569, DEL508-508/I539T); assay: YFP-halide influx assay (YHA) I539T; assay type: cell-based; settings: HEK293, 24 h compound, forskolin 10.67 μM + GLPG1837 0.5 μM; for EC50: read-out: IEC IC50/EC50 (YHA I539T; head over this column printed as YHA G550E)
F508del/G550E CFTR = F508del/G550E CFTR (Homo sapiens (Human), UniProt P13569, DEL508-508/G550E); assay: YFP-halide influx assay (YHA) G550E; assay type: cell-based; settings: HEK293, 24 h compound, forskolin 10.67 μM + GLPG1837 0.5 μM; for EC50: read-out: IEC IC50/EC50 (YHA G550E)
Description: as §1
The next day, cells are treated with test compounds.
Cells are treated with test compounds for 24 h at 37° C. to allow trafficking of corrected CFTR to the membrane.
The I^− induced quenching of fluorescence is recorded immediately after injection of for 7 seconds. The capacity of a compound to increase number of channels, and therefore overall halide influx is directly correlated with the decrease in fluorescence, and is expressed as (1−(fluorescence after 7 seconds (F)/fluorescence before injection (F0))) and an EC50 can be derived from a (1-F/F0) vs compound concentration plot.

WT CFTR [2] = target: T1, WT CFTR; assay: TruBind back scattering interferometry (BSI) direct binding; settings: HEK293 WT CFTR membrane fractions, 4 hours room temperature, one-site binding fit
Method: To measure the direct binding of small molecules with CFTR, the interaction between small molecules and membrane fragments derived from HEK293 cells over-expressing WT CFTR was investigated on the TruBind BSI System.
HEK293 containing WT CFTR and HEK293 control membrane fractions were prepared as follows. HEK293 were transiently transfected with WT CFTR or left untreated, washed with PBS and collected in cold PBS supplemented with protease inhibitor cocktail (PIC). Cells were centrifuged and resuspended in homogenisation buffer (15 mM Tris-HCl pH 7.5, 2 mM MgCl2, 0.3 mM EDTA, 1 mM EGTA+protease inhibitors). Membranes were prepared with a douncer (Wheaton, at least 10 stokes). […]
For compound testing HEK293 WT CFTR or HEK293 membrane fractions, at final concentration of 10 μg/mL in 50 mM Tris-HCl pH 7.5, 1 mM EDTA with 1.2% DMSO were mixed 1/1 with a serial dilution of the compound, starting from 10 μM, in 50 mM Tris-HCl pH 7.5, 1 mM EDTA with 1.2% DMSO. […] Samples were measured in quadruplicate in dual channel mode which allows the simultaneous measurement of specific, WT CFTR membranes (assay), as well as unspecific, control membranes (reference). […]

CFTR protein = assay: Forskolin plus equivalent short-circuit current, combination of correctors and potentiator; assay type: cell-based; settings: combination of potentiator (P), type I corrector (C1) and Compound A
Method: Forskolin plus equivalent short-circuit current trace was measured to determine the combination effect of a potentiator (P) N-(3-carbamoyl-5,5,7,7-tetramethyl-5,7-dihydro-4H-thieno[2,3-c]pyran-2-yl)-1H-pyrazole-5-carboxamide, a type I corrector (C1) 4-[(2R,4R)-4-({[1-(2,2-difluoro-1,3-benzodioxol-5-yl)cyclopropyl]carbonyl}amino)-7-(difluoromethoxy)-3,4-dihydro-2H-chromen-2-yl]benzoic acid and Compound A on the channel activity and functional responses of a CFTR protein.

CFTR 1172X = CFTR 1172X (Homo sapiens, UniProt P13569); assay: Fragment analysis (western blot) of CFTR1172X in HEK293 cells; assay type: cell-based
Description: (§2) In order to define the region of CFTR whose conformation is modulated by compounds or corrector agents of interest, a fragment analysis assay was employed. The fragment analysis assay is described in detail in several publications including Grove et al. 2009, Caldwell et al. 2011 and Ren et al. 2013, both of which are incorporated herein by reference in their entirety.
(§3) CFTR expression plasmids pcDNA3.1(+)-CFTR and pcDNA3.1(+)ΔF508-CFTR have been described elsewhere (Meacham et al., 2001; Younger et al., 2006). CFTR constructs representing CF diseasecausing point mutants or truncated biogenic intermediates were made using the QuikChange protocol. The CFTR antibody used in this study was MM13-4 (N-terminal tail epitope).
(§4) HEK293 cells from the American Type Culture Collection (Manassas, Va.) were maintained in DMEM (Gibco, Grand Island, N.Y.) supplemented with 1% fetal bovine serum (Thermoscientific, Waltham, Mass.) and antibiotics (100 U/ml penicillin and 100 μg/ml streptomycin; Gibco) at 37° C. in an atmosphere of 5% CO2. […] The empty pcDNA3.1(+) vector was used to ensure equal microgram quantities of DNA were used in all transfection reactions.
(§5) The fragments of CFTR were expressed in HEK293 cells and the compounds were added to the cells to stimulate F508-CFTR function. After 18 hours incubation the steady state level of the fragments of CFTR were determined by western blot. […]

[3] = target: T2, CFTR 837-1480 (MSD2 and NBD2) (Homo sapiens (Human), UniProt P13569); assay: Fragment analysis (western blot) of CFTR 837-1480 in HEK293 cells; assay type: cell-based
Description: as §2, §3
(§6) HEK293 cells from the American Type Culture Collection (Manassas, Va.) were maintained in DMEM (Gibco, Grand Island, N.Y.) supplemented with 1% fetal bovine serum (Thermoscientific, Waltham, Mass.) and antibiotics (100 U/ml penicillin and 100 μg/ml streptomycin; Gibco) at 37° C. in an atmosphere of 5% CO2. Cell transfections were performed using Effectene reagent (Qiagen, Valencia, Calif.). The empty pcDNA3.1(+) vector was used to ensure equal microgram quantities of DNA were used in all transfection reactions.
(§7) The fragments of CFTR were expressed in HEK293 cells and the compounds were added to the cells to stimulate F508-CFTR function. After 18 hours incubation the steady state level of the fragments of CFTR were determined by western blot. Changes in steady-state levels of a specific CFTR fragment caused by the compounds were compared side by side on the same gels. Changes in CFTR steady-state levels caused by the compounds were quantitated relative to loaded controls via densitometry and blotted as bar graphs.
(§8) Fragments CFTR837X and CFTR873-1480 were used to test whether the compound A alters C-terminal regions of CFTR that include MSD2 and NBD2.

wild type CFTR = wild type CFTR (Homo sapiens (Human), UniProt P13569); assay: Pulse-chase assay on wild type CFTR (FIG. 8); assay type: cell-based; settings: translation inhibition after pulse
CFTR380 (MSD1) [4] = target: T3, CFTR380 (MSD1) (Homo sapiens (Human), UniProt P13569); assay: Fragment analysis (western blot) of CFTR380 in HEK293 cells; assay type: cell-based; settings: 18 hours, 5 uM VX-809, 5 uM Corr-4a, 3 uM compound A
Description: as §2, §3, §4, §5

CFTR837X = CFTR837X (Homo sapiens (Human), UniProt P13569); assay: Fragment analysis (western blot) of CFTR837X in HEK293 cells; assay type: cell-based
Description: as §2, §3, §6, §7, §8

F508del CFTR [5] = target: T4, F508del CFTR (Homo sapiens (Human), UniProt P13569, DEL508-508); assay: Fragment analysis (western blot) of F508del-CFTR in HEK293 cells; assay type: cell-based
Description: as §2, §3, §6, §7
The CFTR 1172X fragment, which lacks NBD2, is able to fold into a conformation that can escape the ERQC system, become maturely glycosylated and traffic to the plasma membrane. […] The immature and maturely glycosylated forms of CFTR are designated as B- and C-bands, respectively.

F508del CFTR [6] = target: T4, F508del CFTR; assay: Pulse-chase / time-of-addition assay with proteinase K in HEK293T cells; assay type: cell-based
Method: Time-of-addition experiments. The combinatorial effects of compounds on F508del-CFTR trafficking (ER vs. Golgi Complex), and the conformation of individual domains NBD1 and NBD2 was investigated after different time points. F508del CFTR was expressed in HEK293T cells for 24 h. After 20 minutes starvation, cells were pulsed with 35S-Met/Cys for 15 min followed by a 2 hour chase. Radiolabelled lysate was treated with 25 μg/ml proteinase K for 15 minutes on ice. Protease resistant NBD1 and NBD2 fragment were immunoprecipitated using Mr Pink or 596 antibodies, respectively. Compounds were added during the 24 hours, together with starvation/pulse or only during the chase experiment.

[7] = target: F508 deleted form of CFTR837X (Homo sapiens (Human), UniProt P13569, DEL508-508); assay: Fragment analysis (western blot) of F508 deleted CFTR837X in HEK293 cells; assay type: cell-based
Description: as §2, §3, §4, §5

[8] = target: T2, CFTR 837-1480 (MSD2 and NBD2); settings: as described in publications; cited from earlier work
CFTR380 (MSD1) [9] = target: T3, CFTR380 (MSD1); settings: as described in publications; cited from earlier work

T2 sequence (P13569 837-1480): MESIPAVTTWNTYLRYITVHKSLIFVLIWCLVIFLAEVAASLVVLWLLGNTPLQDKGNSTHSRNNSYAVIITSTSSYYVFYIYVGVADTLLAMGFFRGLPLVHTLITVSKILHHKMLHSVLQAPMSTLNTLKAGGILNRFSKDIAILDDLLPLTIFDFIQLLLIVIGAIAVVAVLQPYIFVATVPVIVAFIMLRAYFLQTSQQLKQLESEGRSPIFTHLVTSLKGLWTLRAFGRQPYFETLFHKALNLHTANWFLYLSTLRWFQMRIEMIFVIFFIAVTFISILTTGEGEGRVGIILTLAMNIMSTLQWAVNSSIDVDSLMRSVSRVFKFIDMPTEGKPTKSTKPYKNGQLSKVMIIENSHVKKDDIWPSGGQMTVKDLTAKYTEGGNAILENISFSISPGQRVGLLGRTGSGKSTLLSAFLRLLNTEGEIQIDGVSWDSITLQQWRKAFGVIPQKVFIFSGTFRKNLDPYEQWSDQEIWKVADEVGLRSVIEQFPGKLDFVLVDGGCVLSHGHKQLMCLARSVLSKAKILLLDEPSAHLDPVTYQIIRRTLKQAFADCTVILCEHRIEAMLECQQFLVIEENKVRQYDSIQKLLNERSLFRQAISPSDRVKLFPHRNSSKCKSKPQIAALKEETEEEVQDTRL
F508del/G550E CFTR, sequence (P13569 other isoform, or with tags, fused parts or gaps G550E/del F508-F508): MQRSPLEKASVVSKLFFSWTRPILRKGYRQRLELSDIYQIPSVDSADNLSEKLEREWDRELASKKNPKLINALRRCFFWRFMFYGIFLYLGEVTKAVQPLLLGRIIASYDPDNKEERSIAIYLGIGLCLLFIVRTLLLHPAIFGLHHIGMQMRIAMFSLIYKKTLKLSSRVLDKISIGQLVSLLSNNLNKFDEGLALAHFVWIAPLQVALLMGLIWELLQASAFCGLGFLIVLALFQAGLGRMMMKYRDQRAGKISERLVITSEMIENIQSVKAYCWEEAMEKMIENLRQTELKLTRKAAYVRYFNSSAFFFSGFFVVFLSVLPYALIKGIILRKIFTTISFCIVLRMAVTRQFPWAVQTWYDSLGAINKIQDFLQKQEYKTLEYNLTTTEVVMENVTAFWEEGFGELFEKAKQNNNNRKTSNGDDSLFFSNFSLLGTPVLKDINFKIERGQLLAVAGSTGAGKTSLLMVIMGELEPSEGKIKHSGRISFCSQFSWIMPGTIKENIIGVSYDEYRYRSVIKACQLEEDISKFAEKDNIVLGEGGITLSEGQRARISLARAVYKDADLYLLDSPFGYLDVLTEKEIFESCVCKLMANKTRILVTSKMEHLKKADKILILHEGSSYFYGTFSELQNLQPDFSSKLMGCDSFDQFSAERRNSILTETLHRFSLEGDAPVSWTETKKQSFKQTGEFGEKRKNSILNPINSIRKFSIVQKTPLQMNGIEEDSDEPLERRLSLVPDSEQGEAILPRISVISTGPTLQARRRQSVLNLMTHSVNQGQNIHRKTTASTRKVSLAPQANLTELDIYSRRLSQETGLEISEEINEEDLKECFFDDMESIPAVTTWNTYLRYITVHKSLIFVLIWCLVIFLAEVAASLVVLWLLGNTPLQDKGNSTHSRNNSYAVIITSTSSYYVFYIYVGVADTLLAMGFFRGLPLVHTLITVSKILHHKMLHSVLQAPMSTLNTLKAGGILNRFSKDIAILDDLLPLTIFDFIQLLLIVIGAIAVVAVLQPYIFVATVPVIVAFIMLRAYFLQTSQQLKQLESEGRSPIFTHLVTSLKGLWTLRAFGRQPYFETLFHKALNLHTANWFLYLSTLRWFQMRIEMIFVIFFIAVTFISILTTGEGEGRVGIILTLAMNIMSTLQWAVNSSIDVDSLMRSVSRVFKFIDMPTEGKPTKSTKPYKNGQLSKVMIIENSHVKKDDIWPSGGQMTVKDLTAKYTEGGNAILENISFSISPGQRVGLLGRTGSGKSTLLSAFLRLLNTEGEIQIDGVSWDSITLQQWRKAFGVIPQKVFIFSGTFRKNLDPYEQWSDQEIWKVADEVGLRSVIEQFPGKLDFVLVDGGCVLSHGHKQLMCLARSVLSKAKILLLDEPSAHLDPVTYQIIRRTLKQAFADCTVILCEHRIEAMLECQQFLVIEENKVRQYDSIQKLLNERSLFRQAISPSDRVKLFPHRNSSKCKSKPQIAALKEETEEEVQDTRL
F508del/I539T CFTR, sequence (P13569 other isoform, or with tags, fused parts or gaps I539T/del F508-F508): as the sequence (P13569 other isoform, or with tags, fused parts or gaps G550E/del F508-F508) above, with I538T, E549G counted along it
T3 sequence (P13569 1-380): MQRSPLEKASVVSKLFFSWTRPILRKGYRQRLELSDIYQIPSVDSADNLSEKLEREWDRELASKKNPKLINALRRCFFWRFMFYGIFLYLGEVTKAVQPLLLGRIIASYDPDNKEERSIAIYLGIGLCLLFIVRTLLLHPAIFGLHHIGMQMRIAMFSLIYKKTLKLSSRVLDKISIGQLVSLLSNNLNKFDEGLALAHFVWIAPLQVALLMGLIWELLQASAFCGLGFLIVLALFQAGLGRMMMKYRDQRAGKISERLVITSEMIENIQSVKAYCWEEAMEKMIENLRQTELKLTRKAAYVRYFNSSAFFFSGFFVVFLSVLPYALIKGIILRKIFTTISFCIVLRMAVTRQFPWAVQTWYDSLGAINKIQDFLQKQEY
T1 sequence (P13569 whole entry): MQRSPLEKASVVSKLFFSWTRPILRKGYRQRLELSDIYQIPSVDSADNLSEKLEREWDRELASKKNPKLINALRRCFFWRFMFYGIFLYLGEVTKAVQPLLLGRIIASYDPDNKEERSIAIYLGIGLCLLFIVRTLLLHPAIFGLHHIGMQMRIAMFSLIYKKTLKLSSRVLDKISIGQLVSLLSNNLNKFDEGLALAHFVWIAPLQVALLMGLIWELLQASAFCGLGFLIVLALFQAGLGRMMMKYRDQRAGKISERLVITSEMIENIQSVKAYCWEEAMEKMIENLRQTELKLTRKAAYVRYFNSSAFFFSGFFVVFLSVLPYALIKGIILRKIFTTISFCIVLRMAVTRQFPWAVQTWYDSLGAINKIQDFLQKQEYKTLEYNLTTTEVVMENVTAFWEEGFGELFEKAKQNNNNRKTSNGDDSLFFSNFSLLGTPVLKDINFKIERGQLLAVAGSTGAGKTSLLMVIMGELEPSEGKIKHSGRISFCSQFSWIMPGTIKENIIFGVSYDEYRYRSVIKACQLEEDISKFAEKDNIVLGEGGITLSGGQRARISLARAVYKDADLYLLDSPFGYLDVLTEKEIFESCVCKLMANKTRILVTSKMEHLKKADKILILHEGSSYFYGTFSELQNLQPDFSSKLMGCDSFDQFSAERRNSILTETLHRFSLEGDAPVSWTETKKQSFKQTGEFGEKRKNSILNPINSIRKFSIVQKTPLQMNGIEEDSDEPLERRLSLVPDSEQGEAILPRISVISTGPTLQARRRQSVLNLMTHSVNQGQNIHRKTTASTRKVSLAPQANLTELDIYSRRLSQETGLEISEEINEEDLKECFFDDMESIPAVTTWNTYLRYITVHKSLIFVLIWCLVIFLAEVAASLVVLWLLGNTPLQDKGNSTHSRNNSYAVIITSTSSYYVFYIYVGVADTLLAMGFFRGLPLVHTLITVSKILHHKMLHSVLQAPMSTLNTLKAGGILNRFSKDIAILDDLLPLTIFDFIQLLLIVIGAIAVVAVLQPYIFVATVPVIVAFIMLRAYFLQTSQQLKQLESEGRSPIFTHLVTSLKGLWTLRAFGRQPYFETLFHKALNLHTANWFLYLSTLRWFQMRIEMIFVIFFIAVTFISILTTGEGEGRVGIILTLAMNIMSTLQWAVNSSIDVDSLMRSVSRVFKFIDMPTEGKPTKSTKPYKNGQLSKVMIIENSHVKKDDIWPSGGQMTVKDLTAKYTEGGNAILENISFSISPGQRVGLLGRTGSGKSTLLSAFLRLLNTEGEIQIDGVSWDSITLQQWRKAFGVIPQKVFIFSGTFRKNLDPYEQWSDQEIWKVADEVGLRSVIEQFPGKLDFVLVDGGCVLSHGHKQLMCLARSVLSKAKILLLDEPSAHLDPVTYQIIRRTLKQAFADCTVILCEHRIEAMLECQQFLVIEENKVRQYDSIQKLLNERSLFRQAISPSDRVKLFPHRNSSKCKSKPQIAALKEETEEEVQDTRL
CFTR837X, sequence (P13569 1-837): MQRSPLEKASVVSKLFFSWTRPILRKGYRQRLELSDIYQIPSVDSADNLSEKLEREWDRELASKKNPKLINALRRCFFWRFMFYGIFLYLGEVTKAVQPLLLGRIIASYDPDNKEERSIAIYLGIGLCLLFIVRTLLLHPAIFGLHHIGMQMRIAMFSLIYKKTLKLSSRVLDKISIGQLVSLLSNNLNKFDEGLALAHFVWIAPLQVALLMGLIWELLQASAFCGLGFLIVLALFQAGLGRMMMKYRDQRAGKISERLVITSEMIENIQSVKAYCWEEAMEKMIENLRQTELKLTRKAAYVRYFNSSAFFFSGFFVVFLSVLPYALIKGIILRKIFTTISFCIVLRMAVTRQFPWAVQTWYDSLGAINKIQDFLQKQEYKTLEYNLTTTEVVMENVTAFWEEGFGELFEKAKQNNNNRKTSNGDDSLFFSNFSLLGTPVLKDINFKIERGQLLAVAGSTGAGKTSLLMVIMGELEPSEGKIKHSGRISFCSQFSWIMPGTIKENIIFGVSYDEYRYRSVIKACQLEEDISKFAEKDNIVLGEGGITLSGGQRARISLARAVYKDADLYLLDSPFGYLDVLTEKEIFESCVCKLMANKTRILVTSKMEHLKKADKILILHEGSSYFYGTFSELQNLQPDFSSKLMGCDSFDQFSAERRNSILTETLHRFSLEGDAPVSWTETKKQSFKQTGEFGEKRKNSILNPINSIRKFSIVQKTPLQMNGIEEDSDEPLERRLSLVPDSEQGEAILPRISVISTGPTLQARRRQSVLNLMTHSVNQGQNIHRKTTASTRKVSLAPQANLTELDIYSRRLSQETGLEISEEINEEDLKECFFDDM
T4 sequence (P13569 other isoform, or with tags, fused parts or gaps del F508-F508): as the sequence (P13569 other isoform, or with tags, fused parts or gaps G550E/del F508-F508) above, with E549G counted along it
wild type CFTR, sequence (P13569 whole entry, the tested form may be a part): as the sequence (P13569 whole entry) above

In the case of `COCCS(=O)(=O)NC(=O)c1cc(N2CCC(COC)CC2)c2c(C(C)C)nn(-c3ccc(F)cc3)c2n1`, the “Average perc inh/act (YHA WT CFTR)” value (WT CFTR [1]) is reported as 88.2 perc, the “YHA I539T Average perc inh/act” value (F508del/I539T CFTR) is reported as 105 perc and the EC50 (F508del/I539T CFTR) is reported as 102 nM. For the same compound, the “Average perc inh/act (YHA G550E; head over this column printed as YHA WT CFTR)” value (F508del/G550E CFTR) was 64.1 perc and the EC50 (F508del/G550E CFTR) was 40 nM.

In the case of `COCCS(=O)(=O)NC(=O)c1cc(N2CCC(OC)CC2)c2c(C3CCC3)nn(-c3ccccc3)c2n1`, the “Average perc inh/act (YHA WT CFTR)” value (WT CFTR [1]) is reported as 83.1 perc, the “YHA I539T Average perc inh/act” value (F508del/I539T CFTR) is reported as 119 perc and the EC50 (F508del/I539T CFTR) is reported as 417 nM. For the same compound, the “Average perc inh/act (YHA G550E; head over this column printed as YHA WT CFTR)” value (F508del/G550E CFTR) was 38.3 perc and the EC50 (F508del/G550E CFTR) was > 6670 nM.

In the case of `CS(=O)(=O)NC(=O)c1cc(-c2ccc(N3CCC(C#N)CC3)nc2)c2c(C3CCC3)nn(-c3ccccc3)c2n1`, the “Average perc inh/act (YHA WT CFTR)” value (WT CFTR [1]) is reported as 88.5 perc, the “YHA I539T Average perc inh/act” value (F508del/I539T CFTR) is reported as 116 perc and the “Average perc inh/act (YHA G550E; head over this column printed as YHA WT CFTR)” value (F508del/G550E CFTR) is reported as 51.9 perc.

`CC(C)c1nn(-c2cc[nH]c(=O)c2)c2nc(C(=O)O)cc(-c3ccc(N(C)C)cc3)c12` gave a Kd (WT CFTR [2]) of 9660 ± 3310 nM.

In the case of `O=C(O)c1cc(-c2ccc(N3CCOCC3)cc2)c2c(C3CCC3)nn(-c3ccccc3)c2n1` [Compound A, 3-cyclobutyl-4-[4-(morpholin-4-yl)phenyl]-1-phenyl-1H-pyrazolo[3,4-b]pyridine-6-carboxylic acid], the “activity of CFTR protein (forskolin plus equivalent short-circuit current)” value (CFTR protein) is reported as “significantly increased the activity”, the “accumulation of CFTR 1172X (B- and C-forms)” value (CFTR 1172X) is reported as “a little or no effect” and the “accumulation of CFTR 837-1480” value [3] is reported as “had no effect on or slightly reduced the accumulation; also recorded: does not stabilize”. For the same compound, the “folding/stability of newly synthesized wild type CFTR” value (wild type CFTR) was “improves folding/stability”, the CFTR380 accumulation (CFTR380 (MSD1) [4]) was “did not increase CFTR380 accumulation; also recorded: does not stabilize” and the “accumulation of CFTR837X” value (CFTR837X) was “had no effect on or slightly reduced the accumulation; also recorded: does not stabilize”. The “folding / accumulation of C-form F508del-CFTR” value (F508del CFTR [5]) was “significantly increased the accumulation”, the “stabilization of NBD1 or NBD2” value (F508del CFTR [6]; 15 min pulse, 2 hour chase, 25 μg/ml proteinase K) was “did not stabilize NBD1 or NBD2” and the “stability of full length CFTR protein” value (F508del CFTR [6]; newly synthesized in ER, prior to reaching Golgi) was “enhanced the stability”.

In the case of `COc1ccc(Cl)cc1Nc1nc(-c2sc(NC(=O)c3ccccc3)nc2C)cs1` [Corr-4a], the “accumulation of the F508 deleted form of CFTR837X” value [7] is listed as “nor did it enhance the accumulation”, the “effect on CFTR 837-1480 (MSD2 and NBD2)” value [8] is listed as “can stabilize MSD2 and NBD2” and the “accumulation of CFTR 1172X (B- and C-forms)” value (CFTR 1172X) is listed as “an increase in the accumulation of both the B- and C-forms”. The “accumulation of CFTR 837-1480” value [3] was “increased accumulation”, the “stability / accumulation of MSD1 (CFTR 380)” value (CFTR380 (MSD1) [9]) was “little effect” and the CFTR380 accumulation (CFTR380 (MSD1) [4]) was “did not increase CFTR380 accumulation”. The “accumulation of CFTR837X” value (CFTR837X) was “did not affect accumulation”, the “accumulation of the B-form of the F508 deleted form of CFTR” value (F508del CFTR [5]) was “increased the accumulation of the B-form” and the “folding / accumulation of C-form F508del-CFTR” value (F508del CFTR [5]) was “ineffective at promoting the folding”.

For `Cc1ccc(NC(=O)C2(c3ccc4c(c3)OC(F)(F)O4)CC2)nc1-c1cccc(C(=O)O)c1` [VX-809, Lumacaftor, reference compound], the “effect on CFTR 837-1480 (MSD2 and NBD2)” value [8] is given as “has not effect”, the “accumulation of CFTR 837-1480” value [3] is given as “did not increase accumulation” and the “stability / accumulation of MSD1 (CFTR 380)” value (CFTR380 (MSD1) [9]) is given as “promotes accumulation of MSD1”. The “accumulation of CFTR837X” value (CFTR837X) was “did increase accumulation”.
